Tested on: CFLP female mice
Assay: Reversal of Adrenaline-Exacerbated Glucose Intolerance in Mice
Type: in vivo
Settings: oral gavage, glucose 1 g/kg and adrenaline 300 μg/kg s.c., 0-120 minutes, versus water control, 24 h fasted mice
Method: (A) Reversal of Adrenaline-Exacerbated Glucose Intolerance in Mice
CFLP female mice of about 25 g were fasted for 24 hours prior to receiving water (10 ml/kg) or compounds by oral gavage. Thirty minutes later, glucose (1 g/kg) and adrenaline (300 μg/kg) were injected subcutaneously. Blood samples for glucose analysis were taken serially from the tail of each mouse at 0, 30, 60, 90 and 120 minutes after dosing glucose and the results are expressed below as the percentage reduction in the area under the blood glucose curve; the compound treated groups being compared to the water dosed control group. Six mice were used in each treatment group.

Row | SMILES | % Reduction in area under Blood Glucose Curve (20 μmol/kg) | % Reduction in area under Blood Glucose Curve (10 μmol/kg)
1 | Clc1ccc2c(c1)CN(CC1=NCCN1)C2 [Example 3, 2-[2H-(5-Chloro-1,3-dihydroisoindole)methyl]-4,5-dihydroimidazole] | 44% | 
2 | Clc1cccc2c1CN(CC1=NCCN1)C2 [Example 2, 2-[2H-(4-Chloro-1,3-dihydroisoindole)methyl]-4,5-dihydroimidazole] |  | 24%
3 | c1ccc2c(c1)CN(CC1=NCCN1)C2 [Example 1, 2-[2H-(1,3-Dihydroisoindole)methyl]-4,5-dihydroimidazole] |  | 40%

Source: patent US4959374A, “Novel compounds” (Beecham Group P.L.C., priority 1989, dated 1990)
